Measured values: ChEMBL document CHEMBL1201862, “PubChem BioAssay data set” (2004)
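Method: 48-hour compound exposure of cells in 96-well plates, five concentrations, linear interpolation of endpoints. Abbreviation: GI50, concentration required for 50% inhibition of growth.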 The source made the active and inactive calls. No stated cut-off is given here; in the data, active = GI50 up to about 1.1 µM and inactive = higher. Where a SMILES comes first, the peptide text is derived from it. The star is where a group is joined. Cbz = O=C(OCc1ccccc1)*

Assays:
Assay in all cases: DTP human tumour cell line panel, 48 h
[1] = system: RPMI-8226
[2] = system: IGROV-1
[3] = system: Hs-578T
[4] = system: NCI-H460
[5] = system: RXF 393
[6] = system: HT-29
[7] = system: SK-MEL-5
[8] = system: SNB-19
[9] = system: U-251
[10] = system: OVCAR-8
[11] = system: MDA-MB-435
[12] = system: DU-145
[13] = system: NCI-H522
[14] = system: SK-OV-3
[15] = system: HCC 2998
[16] = system: NCI-H226
[17] = system: NCI-H23
[18] = system: EKVX
[19] = system: SW-620

## Cc1ccc(C(=O)/C=C2\Nc3cccnc3NC2=O)cc1
[1]
  GI50: > 100 µM (inactive)
[2]
  GI50: > 100 µM (inactive)
[3]
  GI50: 37.8 µM (inactive)
[4]
  GI50: > 100 µM (inactive)
[5]
  GI50: 21.7 µM (inactive)
[6]
  GI50: > 100 µM (inactive)
[7]
  GI50: > 100 µM (inactive)
[8]
  GI50: > 100 µM (inactive)
[9]
  GI50: 39.5 µM (inactive)
[10]
  GI50: 51.2 µM (inactive)
[11]
  GI50: > 100 µM (inactive)
[12]
  GI50: > 100 µM (inactive)
[13]
  GI50: 16.6 µM (inactive)
[14]
  GI50: > 100 µM (inactive)
[15]
  GI50: > 100 µM (inactive)
[16]
  GI50: > 100 µM (inactive)
[17]
  GI50: > 100 µM (inactive)
[18]
  GI50: > 100 µM (inactive)

## COC(=O)C(Cc1ccccc1)NC(=O)CNC(=O)CSc1nnc(COc2ccc(Cl)cc2)n1-c1ccccc1 (stereo not given)
[1]
  GI50: 4.74 µM (inactive)
[2]
  GI50: 15.4 µM (inactive)
[3]
  GI50: 26.5 µM (inactive)
[4]
  GI50: 16.3 µM (inactive)
[5]
  GI50: 16.7 µM (inactive)
[6]
  GI50: 18.8 µM (inactive)
[7]
  GI50: 16.1 µM (inactive)
[8]
  GI50: 17.2 µM (inactive)
[9]
  GI50: 18.2 µM (inactive)
[10]
  GI50: 13.7 µM (inactive)
[11]
  GI50: 18.2 µM (inactive)
[12]
  GI50: 17.5 µM (inactive)
[13]
  GI50: 2.27 µM (inactive)
[19]
  GI50: 20.4 µM (inactive)
[14]
  GI50: 14.5 µM (inactive)
[15]
  GI50: 12 µM (inactive)
[16]
  GI50: 16.5 µM (inactive)
[17]
  GI50: 18.7 µM (inactive)
[18]
  GI50: 20.4 µM (inactive)

## CC(C)CC(=O)CC(O)C(Cl)(Cl)Cl (stereo not given)
[1]
  GI50: > 100 µM (inactive)
[2]
  GI50: > 100 µM (inactive)
[3]
  GI50: 56.2 µM (inactive)
[5]
  GI50: > 100 µM (inactive)
[6]
  GI50: > 100 µM (inactive)
[7]
  GI50: > 100 µM (inactive)
[8]
  GI50: > 100 µM (inactive)
[9]
  GI50: > 100 µM (inactive)
[10]
  GI50: > 100 µM (inactive)
[11]
  GI50: > 100 µM (inactive)
[12]
  GI50: > 100 µM (inactive)
[13]
  GI50: 3.95 µM (inactive)
[19]
  GI50: > 100 µM (inactive)
[14]
  GI50: 87.1 µM (inactive)
[15]
  GI50: > 100 µM (inactive)
[16]
  GI50: > 100 µM (inactive)
[17]
  GI50: > 100 µM (inactive)
[18]
  GI50: > 100 µM (inactive)

## CCOC(=O)CNC(=O)C(C)NC(=O)C(NC(=O)OCc1ccccc1)C(C)C (stereo not drawn) (Cbz-Val-Ala-Gly-OEt; configuration not given here)
[1]
  GI50: > 100 µM (inactive)
[2]
  GI50: > 100 µM (inactive)
[3]
  GI50: > 100 µM (inactive)
[4]
  GI50: > 100 µM (inactive)
[5]
  GI50: > 100 µM (inactive)
[6]
  GI50: > 100 µM (inactive)
[7]
  GI50: > 100 µM (inactive)
[8]
  GI50: > 100 µM (inactive)
[9]
  GI50: > 100 µM (inactive)
[10]
  GI50: > 100 µM (inactive)
[11]
  GI50: > 100 µM (inactive)
[12]
  GI50: > 100 µM (inactive)
[13]
  GI50: 97.5 µM (inactive)
[19]
  GI50: > 100 µM (inactive)
[14]
  GI50: > 100 µM (inactive)
[15]
  GI50: 90.2 µM (inactive)
[16]
  GI50: > 10 µM (inactive)
[17]
  GI50: > 100 µM (inactive)
[18]
  GI50: > 100 µM (inactive)

## O=C1c2ccccc2-c2ccc(/N=[N+](/[O-])c3ccc4c(c3)C(=O)c3ccccc3-4)cc21
[1]
  GI50: > 100 µM (inactive)
[2]
  GI50: > 100 µM (inactive)
[3]
  GI50: > 100 µM (inactive)
[4]
  GI50: > 100 µM (inactive)
[5]
  GI50: > 100 µM (inactive)
[6]
  GI50: > 100 µM (inactive)
[7]
  GI50: > 100 µM (inactive)
[8]
  GI50: > 100 µM (inactive)
[9]
  GI50: > 100 µM (inactive)
[10]
  GI50: > 100 µM (inactive)
[11]
  GI50: > 100 µM (inactive)
[12]
  GI50: > 100 µM (inactive)
[13]
  GI50: > 100 µM (inactive)
[19]
  GI50: > 100 µM (inactive)
[14]
  GI50: > 100 µM (inactive)
[15]
  GI50: > 100 µM (inactive)
[16]
  GI50: > 100 µM (inactive)
[17]
  GI50: > 100 µM (inactive)
[18]
  GI50: > 100 µM (inactive)

## c1ccc2[nH]c(C3CCCCO3)nc2c1 (stereo not given)
[1]
  GI50: > 100 µM (inactive)
[2]
  GI50: > 100 µM (inactive)
[3]
  GI50: > 100 µM (inactive)
[5]
  GI50: > 100 µM (inactive)
[6]
  GI50: > 100 µM (inactive)
[7]
  GI50: > 100 µM (inactive)
[8]
  GI50: > 100 µM (inactive)
[9]
  GI50: > 100 µM (inactive)
[10]
  GI50: > 100 µM (inactive)
[11]
  GI50: > 100 µM (inactive)
[12]
  GI50: > 100 µM (inactive)
[13]
  GI50: > 100 µM (inactive)
[19]
  GI50: > 100 µM (inactive)
[14]
  GI50: > 100 µM (inactive)
[15]
  GI50: > 100 µM (inactive)
[16]
  GI50: 6.41 µM (inactive)
[17]
  GI50: > 100 µM (inactive)
[18]
  GI50: > 100 µM (inactive)

## CN(C)CCNC(=O)c1ccc(Cl)c2cc3ccccc3nc12
[1]
  GI50: 0.463 µM (active)
[2]
  GI50: 0.708 µM (active)
[3]
  GI50: 0.759 µM (active)
[4]
  GI50: 0.218 µM (active)
[5]
  GI50: 1.07 µM (active)
[6]
  GI50: 0.422 µM (active)
[7]
  GI50: 1.16 µM (inactive)
[8]
  GI50: 0.998 µM (active)
[9]
  GI50: 0.6 µM (active)
[10]
  GI50: 0.481 µM (active)
[11]
  GI50: 0.951 µM (active)
[12]
  GI50: 0.991 µM (active)
[13]
  GI50: 0.612 µM (active)
[19]
  GI50: 0.453 µM (active)
[14]
  GI50: 2.06 µM (inactive)
[15]
  GI50: 1.16 µM (inactive)
[16]
  GI50: 0.918 µM (active)
[17]
  GI50: 0.632 µM (active)
[18]
  GI50: 1.7 µM (inactive)
